System: Sprague-Dawley rats
Details: oral gavage, 5 mg/kg, heat source ~45° C.
Experimental: The effect was measured by comparison of times taken for a rat to withdraw its paw in response to heat when medicated and unmedicated with morphine.
Animals: Nine conscious Sprague-Dawley rats weighing between 350-450 grams each Treatment groups: • 1. […] Morphine with TPm: morphine HCl (14%) in a carrier containing water (59%) and a tocopheryl phosphate mixture (27%) (TPm). The TPm contained mono-tocopheryl phosphate and di-tocopheryl phosphate.
Formulations 2 and 3 were diluted with water and the final morphine concentration was made up to 5 mg/ml. […] This liquid formulation was then delivered to the animals by oral gavage (tube into stomach).
The experiment used nine rats that were divided into three groups. […]
Analgesic testing was performed at 1, 2, 4 and 6 hours and at each time point withdrawal latency was measured three times on each rat (with at least five minutes rest if using the same paw).
A plantar analgesiometer designed for rapid and efficient screening of analgesia levels in small laboratory animals was used. The device applied a heat source (˜45° C. from an infrared light) to the animal's hindpaw and the time taken to withdraw the paw from the heat source was measured (paw withdrawal latency). […] The animal was placed on a hot plate, confined by a clear acrylic cage which surrounds the plate and paw withdrawal response was monitored. […]

## CN1CC[C@]23c4c5ccc(O)c4O[C@H]2[C@@H](O)C=C[C@H]3[C@H]1C5.O=S(=O)(O)O [morphine sulphate]
  paw withdrawal latency (analgesia): increase in latency

Reference: patent US20090004166A1, “Carrier For Enternal Administration” (priority 2004, published 2009)
